Test results published in article PMC6158191, “Crystal structure of the red light-activated channelrhodopsin Chrimson” (Nature Communications, 2018).
Blank lines part the entries; values can stand above or below the molecule they belong to.

Assays:
[1] = target: T1, C1Chrimson (called Chrimson in the structure and spectroscopy sections) (Chlamydomonas noctigama, UniProt Z9S8G4QJ52); experiment: X-ray crystallography, […] Å; type: binding; conditions: covalent; Schiff base to conserved lysine; crystals at low pH, dark
T1 construct: residues 1-79 of CsChrimson replaced by CrChR1 1-76; Sf9; C-terminal TEV-EGFP-FLAG cleaved for crystals; C-terminal FLAG for spectroscopy; dimer
T1 sequence (Z9S8G4QJ52 1-347): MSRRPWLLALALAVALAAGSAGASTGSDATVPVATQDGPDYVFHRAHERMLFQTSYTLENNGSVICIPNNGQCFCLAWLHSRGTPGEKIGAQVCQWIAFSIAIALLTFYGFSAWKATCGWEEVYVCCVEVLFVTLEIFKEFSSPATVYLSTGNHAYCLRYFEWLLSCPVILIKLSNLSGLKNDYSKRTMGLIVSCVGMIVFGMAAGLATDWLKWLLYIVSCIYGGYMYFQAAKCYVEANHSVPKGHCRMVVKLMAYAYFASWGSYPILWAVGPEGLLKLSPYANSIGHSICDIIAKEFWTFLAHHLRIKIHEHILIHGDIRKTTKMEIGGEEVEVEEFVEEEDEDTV

CsChrimson = target: T2, CsChrimson (Chlamydomonas noctigama, UniProt Z9S8G4QJ52, , form not given); experiment: whole-cell patch clamp, HEK293, photocurrent on cation exchange; type: cell-based; conditions: permeant ion; 110 mM guanidinium chloride outside replacing NaCl; 110 mM NaCl inside, pHi 7.2
T2 construct: extracellular N-terminus of Chrimson replaced by that of C. subdivisa channelrhodopsin; in pmCerulean-C1 vector; HEK293 cells; with Channelrhodopsin (Chloromonas subdivisa; N-terminal extracellular part of the same polypeptide)
T2 sequence (Z9S8G4QJ52 77-347 R159H): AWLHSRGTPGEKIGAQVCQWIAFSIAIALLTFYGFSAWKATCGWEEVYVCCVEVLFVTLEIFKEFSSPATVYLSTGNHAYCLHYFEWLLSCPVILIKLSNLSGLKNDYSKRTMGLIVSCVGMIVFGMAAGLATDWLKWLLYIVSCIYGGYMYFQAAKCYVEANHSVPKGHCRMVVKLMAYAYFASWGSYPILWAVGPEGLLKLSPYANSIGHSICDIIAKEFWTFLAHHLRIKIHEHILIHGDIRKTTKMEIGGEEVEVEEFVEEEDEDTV

[2] = target: C1Chrimson (Chrimson variant with the extracellular N-terminal sequence replaced by that of CrChR1) (Chlamydomonas reinhardtii | Chlamydomonas noctigama); experiment: crystal structure; lipidic cubic phase (monoolein) crystals, 28-33% PEG500DME, 100 mM Na citrate pH 5.0, 100 mM Na malonate pH 7.0, 10-40 mM sarcosine; two protomers in the asymmetric unit; 2.6 Å

Molecule: CC1=C(/C=C/C(C)=C/C=C/C(C)=C/C=O)C(C)(C)CCC1 [all-trans retinal]
X-ray crystallography, 2.6 Å [1]: including the covalently attached all-trans retinal

Molecule: N=C(N)N [guanidinium]
whole-cell patch clamp, HEK293, photocurrent on cation exchange (CsChrimson): ion-conducting pore of the R162H mutant is permeable to the large cation guanidinium

stoichiometry N [2]: 2
Molecule: C1Chrimson (Chrimson variant with the extracellular N-terminal sequence replaced by that of CrChR1)
